Results: PubChem BioAssay AID2060494 (Molecular Pharmacology Branch, DTP, NCI, 2025)

System: 435261-313-R-J1-PDC complex spheroid viability
Assay: Anticancer human tumor 435261-313-R-J1-PDC patient-derived colon adenocarcinoma cell line growth inhibition [GQUAD]
Conditions: for IC50: curve of first compound; for viability, T/C: stronger effect = lower value
Summary of the method: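 Multi-cell-type spheroids of tumor cells with HUVEC and mesenchymal stem cells, treated with drug combinations. Concentrations descend in half-log steps from near clinical Cmax, or from 10 microM where Cmax is unknown; viability read-out.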

[1] = second compound 0.0316 µM, first compound 0.0316 µM
[2] = second compound 0.0316 µM, first compound 0.1 µM
[3] = second compound 0.0316 µM, first compound 0.316 µM
[4] = second compound 0.0316 µM, first compound 1 µM
[5] = second compound 0.0316 µM, first compound 3.16 µM
[6] = second compound 0.0316 µM, first compound 10 µM
[7] = second compound 0.1 µM, first compound 0.0316 µM
[8] = second compound 0.1 µM, first compound 0.1 µM
[9] = second compound 0.1 µM, first compound 0.316 µM
[10] = second compound 0.1 µM, first compound 1 µM
[11] = second compound 0.1 µM, first compound 3.16 µM
[12] = second compound 0.1 µM, first compound 10 µM
[13] = second compound 0.316 µM, first compound 0.0316 µM
[14] = second compound 0.316 µM, first compound 0.1 µM
[15] = second compound 0.316 µM, first compound 0.316 µM
[16] = second compound 0.316 µM, first compound 1 µM
[17] = second compound 0.316 µM, first compound 3.16 µM
[18] = second compound 0.316 µM, first compound 10 µM
[19] = second compound 1 µM, first compound 0.0316 µM
[20] = second compound 1 µM, first compound 0.1 µM
[21] = second compound 1 µM, first compound 0.316 µM
[22] = second compound 1 µM, first compound 1 µM
[23] = second compound 1 µM, first compound 3.16 µM
[24] = second compound 1 µM, first compound 10 µM
[25] = second compound 3.16 µM, first compound 0.0316 µM
[26] = second compound 3.16 µM, first compound 0.1 µM
[27] = second compound 3.16 µM, first compound 0.316 µM
[28] = second compound 3.16 µM, first compound 1 µM
[29] = second compound 3.16 µM, first compound 3.16 µM
[30] = second compound 3.16 µM, first compound 10 µM
[31] = second compound 10 µM, first compound 0.0316 µM
[32] = second compound 10 µM, first compound 0.1 µM
[33] = second compound 10 µM, first compound 0.316 µM
[34] = second compound 10 µM, first compound 1 µM
[35] = second compound 10 µM, first compound 3.16 µM
[36] = second compound 10 µM, first compound 10 µM
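Note: spheroids exposed to the agents for seven days before readout.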
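Throughout, for viability, T/C: percent of vehicle control viability with DMSO wells as 100%.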

CC(C)(O)C1CCC(Nc2ccc3ncc(-c4cccc(C(F)(F)F)c4)n3n2)CC1 (stereo unspecified) + Cc1[nH]c2ccc(F)cc2c1-c1nc2c3cccnc3c3ncccc3c2[nH]1 showed an IC50 (second compound 0.0316 µM) of 605 nM, an IC50 (second compound 0.1 µM) of 683 nM and an IC50 (second compound 0.316 µM) of 520 nM. For the same compound, the IC50 (second compound 1 µM) was 229 nM, the IC50 (second compound 3.16 µM) was less than 31.6 nM and the IC50 (second compound 10 µM) was less than 31.6 nM. It also gave a viability, T/C [1] of 85.1%, a viability, T/C [2] of 93.4% and a viability, T/C [3] of 79%. For the same compound, the viability, T/C [4] was 27.4%, the viability, T/C [5] was 6.6% and the viability, T/C [6] was 11.2%. It also gave a viability, T/C [7] of 80%, a viability, T/C [8] of 79.6% and a viability, T/C [9] of 98.3%. For the same compound, the viability, T/C [10] was 32.2%, the viability, T/C [11] was 8.63% and the viability, T/C [12] was 8.09%. For the same compound, the viability, T/C [13] was 92.8%, the viability, T/C [14] was 90.7% and the viability, T/C [15] was 64.5%. For the same compound, the viability, T/C [16] was 31.5%, the viability, T/C [17] was 3.9% and the viability, T/C [18] was 11.5%. The viability, T/C [19] was 63.4%, the viability, T/C [20] was 61% and the viability, T/C [21] was 44.1%. The viability, T/C [22] was 27.3%, the viability, T/C [23] was 6.32% and the viability, T/C [24] was 5.71%. For the same compound, the viability, T/C [25] was 23.6%, the viability, T/C [26] was 19.2% and the viability, T/C [27] was 30.8%. It also gave a viability, T/C [28] of 22.3%, a viability, T/C [29] of 3.91% and a viability, T/C [30] of 3.07%. For the same compound, the viability, T/C [31] was 18.3%, the viability, T/C [32] was 20.8% and the viability, T/C [33] was 18.5%. For the same compound, the viability, T/C [34] was 20.4%, the viability, T/C [35] was 1.4% and the viability, T/C [36] was 3.39%.
Work on C#Cc1c(F)ccc2cc(O)cc(-c3ncc4c(N5CC6CCC(C5)N6)nc(OCC56CCCN5CC(F)C6)nc4c3F)c12 (stereo unspecified) + CN(C)c1ccc(Nc2c3ccc(NC(=O)CCN4CCCC4)cc3nc3cc(NC(=O)CCN4CCCC4)ccc23)cc1 yielded an IC50 (second compound 0.0316 µM) greater than 10000 nM, an IC50 (second compound 0.1 µM) greater than 10000 nM and an IC50 (second compound 0.316 µM) greater than 10000 nM. For the same compound, the IC50 (second compound 1 µM) was greater than 10000 nM, the IC50 (second compound 3.16 µM) was 3580 nM and the IC50 (second compound 10 µM) was 199 nM. It also gave a viability, T/C [1] of 77%, a viability, T/C [2] of 118% and a viability, T/C [3] of 114%. For the same compound, the viability, T/C [4] was 58.1%, the viability, T/C [5] was 64.9% and the viability, T/C [6] was 48.8%. The viability, T/C [7] was 123%, the viability, T/C [8] was 110% and the viability, T/C [9] was 94.6%. For the same compound, the viability, T/C [10] was 99.6%, the viability, T/C [11] was 66.1% and the viability, T/C [12] was 60.5%. For the same compound, the viability, T/C [13] was 89.3%, the viability, T/C [14] was 130% and the viability, T/C [15] was 82%. It also gave a viability, T/C [16] of 78%, a viability, T/C [17] of 50.7% and a viability, T/C [18] of 64%. The viability, T/C [19] was 82.5%, the viability, T/C [20] was 87.9% and the viability, T/C [21] was 103%. For the same compound, the viability, T/C [22] was 64.5%, the viability, T/C [23] was 62.4% and the viability, T/C [24] was 54.7%. The viability, T/C [25] was 67.8%, the viability, T/C [26] was 65.8% and the viability, T/C [27] was 42.2%. For the same compound, the viability, T/C [28] was 42.5%, the viability, T/C [29] was 56.7% and the viability, T/C [30] was 9.31%. The viability, T/C [31] was 44.2%, the viability, T/C [32] was 73.5% and the viability, T/C [33] was 42.1%. It also gave a viability, T/C [34] of 23.6%, a viability, T/C [35] of 19.8% and a viability, T/C [36] of 0.2%.
With COc1ccc([C@@H](O)c2cc(-c3ncnc4cc(N5CCOCC5)ccc34)c(F)cc2Cl)nn1 + CN(C)c1ccc(Nc2c3ccc(NC(=O)CCN4CCCC4)cc3nc3cc(NC(=O)CCN4CCCC4)ccc23)cc1 the IC50 (second compound 0.0316 µM) was 4190 nM, the IC50 (second compound 0.1 µM) was 4300 nM and the IC50 (second compound 0.316 µM) was 2380 nM. It also gave an IC50 (second compound 1 µM) of 2270 nM, an IC50 (second compound 3.16 µM) of 451 nM and an IC50 (second compound 10 µM) of 134 nM. For the same compound, the viability, T/C [1] was 99%, the viability, T/C [2] was 120% and the viability, T/C [3] was 108%. For the same compound, the viability, T/C [4] was 83.9%, the viability, T/C [5] was 56.6% and the viability, T/C [6] was 35.8%. For the same compound, the viability, T/C [7] was 107%, the viability, T/C [8] was 100% and the viability, T/C [9] was 85.3%. It also gave a viability, T/C [10] of 68.9%, a viability, T/C [11] of 57.9% and a viability, T/C [12] of 35.5%. The viability, T/C [13] was 94.3%, the viability, T/C [14] was 137% and the viability, T/C [15] was 79.7%. It also gave a viability, T/C [16] of 63.9%, a viability, T/C [17] of 55.3% and a viability, T/C [18] of 26.7%. It also gave a viability, T/C [19] of 72%, a viability, T/C [20] of 76.4% and a viability, T/C [21] of 70.9%. For the same compound, the viability, T/C [22] was 64.5%, the viability, T/C [23] was 44.2% and the viability, T/C [24] was 23.9%. It also gave a viability, T/C [25] of 59.7%, a viability, T/C [26] of 48% and a viability, T/C [27] of 69%. It also gave a viability, T/C [28] of 30%, a viability, T/C [29] of 24.6% and a viability, T/C [30] of 11.5%. It also gave a viability, T/C [31] of 56.1%, a viability, T/C [32] of 59.8% and a viability, T/C [33] of 26.9%. The viability, T/C [34] was 14.7%, the viability, T/C [35] was 8.59% and the viability, T/C [36] was 5.21%.
